Results as given in PubChem BioAssay (NCI).
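1) Cells in 96-well plates. 2) Compound, 48 h, 5 concentrations. 3) Linear interpolation between surrounding doses. 4) Unreached endpoint = highest concentration. At the GI50, growth is halved. Definition used: TGI = concentration required for complete inhibition of growth.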

Experiments:
Test in all cases: NCI-60 cell line screen, 48 h
SF-539 CNS = test system: SF-539 CNS
MALME-3M melanoma = test system: MALME-3M melanoma
M14 melanoma = test system: M14 melanoma
HCT-15 colon = test system: HCT-15 colon
OVCAR-8 ovarian = test system: OVCAR-8 ovarian
DU-145 prostate = test system: DU-145 prostate
HOP-92 NSCLC = test system: HOP-92 NSCLC
SF-268 CNS = test system: SF-268 CNS
SK-MEL-2 melanoma = test system: SK-MEL-2 melanoma
HCC-2998 colon = test system: HCC-2998 colon
LOX IMVI melanoma = test system: LOX IMVI melanoma
SNB-19 CNS = test system: SNB-19 CNS
NCI-H23 lung = test system: NCI-H23 lung
ACHN renal = test system: ACHN renal
UACC-62 melanoma = test system: UACC-62 melanoma
SR leukemia = test system: SR leukemia
A549 NSCLC = test system: A549 NSCLC
IGROV1 ovarian = test system: IGROV1 ovarian
SK-MEL-28 melanoma = test system: SK-MEL-28 melanoma
HS 578T breast = test system: HS 578T breast
MOLT-4 leukemia = test system: MOLT-4 leukemia
RPMI-8226 leukemia = test system: RPMI-8226 leukemia
UO-31 renal = test system: UO-31 renal
K-562 leukemia = test system: K-562 leukemia
MCF7 breast = test system: MCF7 breast
SF-295 CNS = test system: SF-295 CNS
HL-60(TB) leukemia = test system: HL-60(TB) leukemia
HT29 colon = test system: HT29 colon
BT-549 breast = test system: BT-549 breast
T-47D breast = test system: T-47D breast
A498 renal = test system: A498 renal
SW-620 colon = test system: SW-620 colon
SK-MEL-5 melanoma = test system: SK-MEL-5 melanoma
OVCAR-4 ovarian = test system: OVCAR-4 ovarian
PC-3 prostate = test system: PC-3 prostate
786-0 renal = test system: 786-0 renal
SK-OV-3 ovarian = test system: SK-OV-3 ovarian
NCI/ADR-RES ovarian = test system: NCI/ADR-RES ovarian
UACC-257 melanoma = test system: UACC-257 melanoma
SN12C renal = test system: SN12C renal
NCI-H460 lung = test system: NCI-H460 lung
OVCAR-3 ovarian = test system: OVCAR-3 ovarian
CAKI-1 renal = test system: CAKI-1 renal
CCRF-CEM leukemia = test system: CCRF-CEM leukemia
NCI-H226 lung = test system: NCI-H226 lung
SNB-75 CNS = test system: SNB-75 CNS
NCI-H522 lung = test system: NCI-H522 lung
MDA-MB-435 = test system: MDA-MB-435
COLO 205 colon = test system: COLO 205 colon
KM12 colon = test system: KM12 colon
HOP-62 NSCLC = test system: HOP-62 NSCLC
U251 CNS = test system: U251 CNS
MDA-MB-231 breast = test system: MDA-MB-231 breast
OVCAR-5 ovarian = test system: OVCAR-5 ovarian
EKVX NSCLC = test system: EKVX NSCLC
HCT-116 colon = test system: HCT-116 colon
RXF 393 renal = test system: RXF 393 renal

## C=CC[Se]C(=O)c1ccccc1OC(C)=O
SF-539 CNS
  GI50: 1.47 µM
  TGI: 2.8 µM
MALME-3M melanoma
  GI50: 1.66 µM
  TGI: 3.38 µM
M14 melanoma
  GI50: 1.58 µM
  TGI: 3.06 µM
HCT-15 colon
  GI50: 2.12 µM
  TGI: 5.09 µM
OVCAR-8 ovarian
  GI50: 1.52 µM
  TGI: 3.56 µM
DU-145 prostate
  GI50: 3.08 µM
  TGI: 11.6 µM
HOP-92 NSCLC
  GI50: 2.28 µM
  TGI: 6.12 µM
SF-268 CNS
  GI50: 2.49 µM
  TGI: 6.5 µM
SK-MEL-2 melanoma
  GI50: 2.05 µM
  TGI: 4.33 µM
HCC-2998 colon
  GI50: 1.36 µM
  TGI: 2.88 µM
LOX IMVI melanoma
  GI50: 1.86 µM
  TGI: 3.78 µM
SNB-19 CNS
  GI50: 0.493 µM
  TGI: 1.66 µM
NCI-H23 lung
  GI50: 1.95 µM
  TGI: 4.57 µM
ACHN renal
  GI50: 1.76 µM
  TGI: 3.21 µM
UACC-62 melanoma
  GI50: 1.79 µM
  TGI: 3.35 µM
SR leukemia
  GI50: 2.41 µM
  TGI: 19.2 µM
A549 NSCLC
  GI50: 0.769 µM
  TGI: > 100 µM
IGROV1 ovarian
  GI50: 1.7 µM
  TGI: 3.11 µM
SK-MEL-28 melanoma
  GI50: 1.85 µM
  TGI: 3.53 µM
HS 578T breast
  GI50: 1.83 µM
  TGI: 6.24 µM
MOLT-4 leukemia
  GI50: 2.9 µM
  TGI: 8.43 µM
RPMI-8226 leukemia
  GI50: 2.22 µM
  TGI: 5.71 µM
UO-31 renal
  GI50: 1.48 µM
  TGI: 2.81 µM
K-562 leukemia
  GI50: 3.1 µM
  TGI: > 100 µM
MCF7 breast
  GI50: 1.83 µM
  TGI: 4.31 µM
SF-295 CNS
  GI50: 0.332 µM
  TGI: 1.32 µM
HL-60(TB) leukemia
  GI50: 2.4 µM
  TGI: 6.54 µM
HT29 colon
  GI50: 2.65 µM
  TGI: > 100 µM
BT-549 breast
  GI50: 1.66 µM
  TGI: 3.2 µM
T-47D breast
  GI50: 2.45 µM
  TGI: 6.06 µM
A498 renal
  GI50: 0.885 µM
  TGI: 5.62 µM
SW-620 colon
  GI50: 1.87 µM
  TGI: 3.9 µM
SK-MEL-5 melanoma
  GI50: 1.94 µM
  TGI: 4.09 µM
OVCAR-4 ovarian
  GI50: 1.68 µM
  TGI: 3.19 µM
PC-3 prostate
  GI50: 0.717 µM
  TGI: 2.48 µM
786-0 renal
  GI50: 1.88 µM
  TGI: 3.49 µM
SK-OV-3 ovarian
  GI50: 1.2 µM
  TGI: 2.54 µM
NCI/ADR-RES ovarian
  GI50: 1.6 µM
  TGI: 4.4 µM
UACC-257 melanoma
  GI50: 2.09 µM
  TGI: 5 µM
SN12C renal
  GI50: 1.61 µM
  TGI: 3.01 µM
NCI-H460 lung
  GI50: 0.36 µM
  TGI: 1.84 µM
OVCAR-3 ovarian
  GI50: 1.95 µM
  TGI: 3.51 µM
CAKI-1 renal
  GI50: 2.35 µM
  TGI: 5.73 µM
CCRF-CEM leukemia
  GI50: 2.42 µM
  TGI: 7.06 µM
NCI-H226 lung
  GI50: 2.62 µM
  TGI: 6.44 µM
SNB-75 CNS
  GI50: 1.38 µM
  TGI: 2.72 µM
NCI-H522 lung
  GI50: 1.93 µM
  TGI: 4.62 µM
MDA-MB-435
  GI50: 1.72 µM
  TGI: 3.35 µM
COLO 205 colon
  GI50: 2.25 µM
  TGI: 5.01 µM
KM12 colon
  GI50: 0.947 µM
  TGI: 2.52 µM

## O=[N+]([O-])c1ccc(Oc2cccnc2)c([N+](=O)[O-])c1
SF-539 CNS
  GI50: 3.21 µM
  TGI: 12.1 µM
MALME-3M melanoma
  GI50: 2.83 µM
  TGI: 17.6 µM
M14 melanoma
  GI50: 2.74 µM
  TGI: 8.61 µM
HCT-15 colon
  GI50: 3.75 µM
  TGI: > 100 µM
HOP-62 NSCLC
  GI50: 5.95 µM
  TGI: 27.9 µM
OVCAR-8 ovarian
  GI50: 3.52 µM
  TGI: > 100 µM
DU-145 prostate
  GI50: 2.96 µM
  TGI: 7.44 µM
HOP-92 NSCLC
  GI50: 2.29 µM
  TGI: 13 µM
SF-268 CNS
  GI50: 4.2 µM
  TGI: 36.4 µM
SK-MEL-2 melanoma
  GI50: 3.97 µM
  TGI: 14.8 µM
HCC-2998 colon
  GI50: 6.53 µM
  TGI: 41.7 µM
LOX IMVI melanoma
  GI50: 3.16 µM
  TGI: 13.3 µM
SNB-19 CNS
  GI50: 24.3 µM
  TGI: > 100 µM
NCI-H23 lung
  GI50: 4.28 µM
  TGI: 18.7 µM
ACHN renal
  GI50: 3.34 µM
  TGI: 13 µM
UACC-62 melanoma
  GI50: 3.75 µM
  TGI: 17.3 µM
SR leukemia
  GI50: 4.19 µM
  TGI: > 100 µM
IGROV1 ovarian
  GI50: 3.95 µM
  TGI: > 100 µM
SK-MEL-28 melanoma
  GI50: 9.49 µM
  TGI: 23.9 µM
U251 CNS
  GI50: 3.12 µM
  TGI: 12.7 µM
HS 578T breast
  GI50: 46 µM
  TGI: > 100 µM
MDA-MB-231 breast
  GI50: 2.9 µM
  TGI: 11.6 µM
MOLT-4 leukemia
  GI50: 6.08 µM
  TGI: 32.2 µM
RPMI-8226 leukemia
  GI50: 4.07 µM
  TGI: 62.6 µM
UO-31 renal
  GI50: 3.07 µM
  TGI: 16.8 µM
K-562 leukemia
  GI50: 3.22 µM
  TGI: > 100 µM
MCF7 breast
  GI50: 3.74 µM
  TGI: 17.6 µM
SF-295 CNS
  GI50: 18.6 µM
  TGI: > 100 µM
HT29 colon
  GI50: 3.5 µM
  TGI: 13.8 µM
BT-549 breast
  GI50: 3.73 µM
  TGI: 29 µM
OVCAR-5 ovarian
  GI50: 3.26 µM
  TGI: 16.9 µM
T-47D breast
  GI50: 7.3 µM
  TGI: 30.1 µM
A498 renal
  GI50: 18.7 µM
  TGI: 43.1 µM
SW-620 colon
  GI50: 3.27 µM
  TGI: 12.5 µM
SK-MEL-5 melanoma
  GI50: 3.04 µM
  TGI: 11.6 µM
OVCAR-4 ovarian
  GI50: 6.4 µM
  TGI: > 100 µM
PC-3 prostate
  GI50: 4.98 µM
  TGI: 36.4 µM
EKVX NSCLC
  GI50: 14.6 µM
  TGI: 32.2 µM
HCT-116 colon
  GI50: 2.43 µM
  TGI: 6.22 µM
786-0 renal
  GI50: 3.43 µM
  TGI: 26.5 µM
RXF 393 renal
  GI50: 3.8 µM
  TGI: 14.7 µM
SK-OV-3 ovarian
  GI50: 3.28 µM
  TGI: 9.73 µM
UACC-257 melanoma
  GI50: 8.81 µM
  TGI: 22.3 µM
SN12C renal
  GI50: 4.3 µM
  TGI: 23.2 µM
NCI-H460 lung
  GI50: 10.5 µM
  TGI: 47.8 µM
OVCAR-3 ovarian
  GI50: 2.75 µM
  TGI: 6.99 µM
CAKI-1 renal
  GI50: 2.26 µM
  TGI: 22.9 µM
CCRF-CEM leukemia
  GI50: 3.22 µM
  TGI: 24.8 µM
NCI-H226 lung
  GI50: 2.97 µM
  TGI: 25.5 µM
SNB-75 CNS
  GI50: 2.76 µM
  TGI: 38.4 µM
NCI-H522 lung
  GI50: 3.02 µM
  TGI: 9.55 µM
COLO 205 colon
  GI50: 2.35 µM
  TGI: 4.39 µM
KM12 colon
  GI50: 2.69 µM
  TGI: 6.68 µM
